Assays:
[1] = tested on: Septoria tritici, KUK-1-21 Strain; experiment: Test for wheat leaf blotch, fluoroimide and/or SDHI agent sprayed on wheat pots, lesion area index 21 days after inoculation; type: in vivo; conditions: wheat, 21 days after inoculation
Protocol: (§1) Control effect (%)=[(Disease index of no treatment area−Disease index of treatment area)/Disease index of no treatment area]×100 [Formula 1]
(§2) The expected effect (expected value E) by using an active ingredient in combination with each of other active ingredients in the above tests was determined by the following Colby formula (see COLBY, S. R., Weeds 15: 20-22 (1967)).
(§3) E(Expected effect)=(X+Y)−(X×Y/100) [Formula 2]
(§4) Test for Wheat Leaf Blotch (Septoria tritici, KUK-1-21 Strain):
(§5) Agrochemical liquids containing a predetermined concentration of fluoroimide and/or a predetermined concentration of each SDHI agent were applied to wheat in a predetermined amount with a spray gun. After air drying, a suspension of fungus spore of Septoria tritici adjusted to 1.0×10^7 spores/ml was inoculated by spraying. After that, the wheat pots were kept in a growth chamber under a light condition of at 15° C. 100% RH to encourage the development of the disease. Twenty-one days after the inoculation, the lesion area index (0-10) was set and the controlling effects and expected values are examined in the same manner as Example 1.

[2] = tested on: Septoria tritici, KUK-1-21 Strain; experiment: Test for wheat leaf blotch, fluoroimide and/or DMI agent sprayed on wheat pots, lesion area index 17 days after inoculation; type: in vivo; conditions: wheat, 17 days after inoculation
Protocol: as §4
as §5, with “DMI” for “SDHI”, “Seventeen” for “Twenty-one”, “determined for” for “set and”, “evaluation of” for “controlling effects and expected values are examined in”, “control effect.” for “same manner as Example 1.”
as §1, §2, §3
X=controlling effect of fungicide A alone
Y=controlling effect of fungicide B alone

O=C1C(Cl)=C(Cl)C(=O)N1c1ccc(F)cc1 [fluoroimide]
Controlling Effect as single agent ([1]; fluoroimide alone 50 ppm): 5% | Controlling Effect as single agent ([1]; fluoroimide alone 100 ppm): 25% | Controlling Effect as single agent ([2]; fluoroimide alone 50 ppm): 25% | Controlling Effect as single agent ([2]; fluoroimide alone 100 ppm): 50%
